Results taken from patent US20180207228A1, “PEPTIDE COMBINATIONS AND USES THEREOF FOR TREATING GRASS ALLERGY” (ALK-Abelló A/S, priority 2015, published 2018).
Entries after “also recorded” stand apart in the source; their conditions may differ. Where no end group is shown, it is not given here.

How the values were obtained:
[1] = test system: grass allergic donor derived T cell lines (TCL-02 DK-2); experiment: Cross-reactivity of homologue peptides, proliferation on TCL02-DK2 (Study XR1); assay type: cell-based, human; settings: for experimental cross-reactivity: 2 μg/ml, TCL02-DK2, 21 donors
Procedure: To measure the experimental cross-reactivity the proliferation assay of Example 3 was carried out on 21 grass allergic donors (TCL02-DK2). […] Cross-reactivity to Phleum pratense peptides with either close (Lolium perenne (Lol p)) or distant (Phalaris aquatica (Pha a), Cynodon dactylon (Cyn d)) species was experimentally investigated.
For analysing the cross-reactivity data, it was investigated if a donor responds to both native and homologue peptide, XY correlation plots were made where the donor responses to native peptides were plotted versus the donor responses to homologues. […] If less than five donors were responding to the parent peptides, then the data was considered to be in-conclusive, and were thus labelled with “-”. For some of the peptides the analysis was further supported by performing a Spearman r-Non Parametric test (data not shown).
Further the magnitude of T cell response from a parent peptide as defined herein and homologue response were plotted in a XY plot by using GraphPad Prism 6.
To measure the experimental cross-reactivity, the proliferation assay of Example 3 was carried out on 21 grass pollen allergic donors (TCL02-DK2, Study XR1) and 20 grass pollen allergic donors (TCL03−DK1+DK2, Study XR2). […] In Study XR1, Cross-reactivity to Phleum pratense peptides with either close (Lolium perenne-Lol p) or distant ([…]-Pha a, Cynodon dactylon-Cyn d) species was experimentally investigated. In Study XR1, 67 homologue peptides corresponding to 41 native Phleum pratense peptides were investigated together with the 41 Phleum pratense peptides at a concentration of 2 μg/ml. Similarly, study XR2 was carried out on 20 grass pollen allergic donors where donor derived TCL-03 lines were used to investigate Phleum pratense cross-reactivity to Poa pratensis (Poa p), Dactylis glomerata (Dac g), Festuca pratensis (Fes p), Paspalum notatum (Pas n), Sorghum halepense (Sor h), Lolium perenne (Lol p), Phalaris aquatica (Pha a) and Cynodon dactylon (Cyn d).

[2] = test system: allergen specific T cells; experiment: T cell proliferation assay (72 h) on donor derived T cell lines (TCL02/TCL03); assay type: cell-based, human; settings: single peptide
Summary of the method: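 CD8-depleted PBMCs from grass-allergic donors stimulated with natural grass allergen mix (nPhl p 1 0.5 μg/ml) to raise T cell lines; restimulated with irradiated APCs, allergens or PHA-P (0.5 μg/ml) plus rIL-2. Proliferation to overlapping 20-mer and selected 15-mer grass peptides tested with TCL02 (day 24) or TCL03 (day 34).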

[3] = Peptide solubility by visual inspection; assay type: physicochemical; settings: for Visual inspection after 60 min pH 7 / Visual inspection after centrifugation pH 7 / Visual inspection after 60 min pH 4.5 / Visual inspection after centrifugation pH 4.5: 3 mg/mL, acetate salt, non-filtered; for Visual inspection after 60 min pH 7 / Visual inspection after centrifugation pH 7: 250 mM D-Mannitol and 25 mM sodium phosphate; for Visual inspection after 60 min pH 4.5 / Visual inspection after centrifugation pH 4.5: 250 mM D-Mannitol and 25 mM sodium acetate
Procedure: Water (pH 3-5) • 2. 250 mM D-Mannitol and 25 mM sodium acetate, pH 4.5 • 3. 250 mM D-Mannitol and 25 mM sodium phosphate, pH 7.0 • 4. […] Water (pH 3-5) • 2. 250 mM D-Mannitol and 25 mM sodium acetate, pH 4.5 • 3. 250 mM D-Mannitol and 25 mM sodium phosphate, pH 7.0 • 4. […] A subset of the peptides was selected as candidate peptides for a final peptide mixture. […] During the solubility studies the peptide-containing solutions were inspected visually before and after filtration for turbidity, and presence of particles/aggregates. In addition, presence of turbidity/particles/aggregates was also detected by optical density (OD) or absorbance of filtered material, but might also be detected by size-exclusion chromatography. Furthermore, Sub-visual particles may also be detected by dynamic light scattering (DLS) analysis on filtered and non-filtered peptide containing solutions. Samples were furthermore subjected to centrifugation to allow for the possible visual inspection of pelleted material.

[4] = test system: grass pollen allergic donor derived TCL-03 lines; experiment: Extended cross-reactivity study, proliferation on TCL03 DK1+DK2 (Study XR2), scoring; assay type: cell-based, human; settings: study XR2; for Cross-reactivity score, Cyn d: homologue from Cyn d; for Cross-reactivity score, Dac g: homologue from Dac g; for Cross-reactivity score, Fes p: homologue from Fes p; for Cross-reactivity score, Lol p: homologue from Lol p; for Cross-reactivity score, Pas n: homologue from Pas n; for Cross-reactivity score, Pha a: homologue from Pha a; for Cross-reactivity score, Poa p: homologue from Poa p; for Cross-reactivity sum: scores of all species added; for Cross-reactivity/species: sum divided by the number of species measured
[5] = Extended solubility and short term stability study (visual, U-HPLC recovery, DLS, 90LS, UV-VIS, sum of scores); settings: for solubility: pH 4.5
Procedure: For that purpose, the peptides were provided as acetate salts (produced by Innovagen® at a >10 mg scale of manufacturing). To take into account batch-to-batch variations, some peptides were tested from other batches of the manufacturer Innovagen®, as well as from another manufacturer (Almac) and from in-house production. Solubility experiments were performed on peptide in solution in concentrations ranging from 0.5 mg/mL to 3 mg/mL (dry matter)—with the following solvents: • Water • Acetate buffer, pH 4.5 (25 mM sodium acetate containing 250 mM D-Mannitol) • Phosphate buffer, pH 7.0 (25 mM sodium phosphate containing 250 mM D-Mannitol) • Glycine buffer, pH 8.5 (25 mM glycine containing 250 mM D-Mannitol)
The solubility of the peptides was initially investigated by visual inspection and U-HPLC recovery. Visual inspection included assessment of turbidity and presence of particles/aggregates of each peptide solution before and after centrifugation as well as visual inspection of pelleted material. The visual inspection were reported as “clear solution”, “very small precipitation only visible with a magnifier”, “precipitation visible/turbid solution” or “more precipitation/turbid solution”. Filtration of peptide solutions were conducted using syringe based filters containing a polyethersulfone (PES) membrane chemistry and a pore size of 0.2 μm. The amount of the peptide in the supernatant of a filtered sample was determined using U-HPLC with reverse phase chromatography and recovery were determined as described in Example 5.
Peptide solutions were investigated at a time point of 1 hour after production, but were also repeated at later time point (e.g. 24. 48 or 96 hours) to investigate the stability of the peptides.
Peptide solutions were investigated to determine the presence of turbidity/particles/aggregates by use of optical density (OD) and change in UV-VIS absorbance at a wavelength of 320 nm, of the filtrate. […] In addition or as an alternative, the amount of the peptide in the supernatant of a filtered sample was determined using U-HPLC as described above, with the exception that the recovery was determined by dividing the peak area of the filtered sample in relation to the peak area in the original solution prior to filtration. See also Example 5 for further details regarding UV-VIS, and recovery measured by U-HPLC.
The peptides were scored in relation to the outcome of the above mentioned tests: For each peptide in a given buffer and at a given concentration, a sum of test scores was calculated and the sum used to rank the peptides according to solubility: • 1. […] DLS peak 1 number 3 nm gave a score of 1, 3-10 nm gave a score of 2, 10-100 nm gave a score of 3, >100 nm gave a score of 4. • 5. 90LS at 400 nm: Intensity <450 gave a score of 1, <800 gave a score of 2, >800 gave a score of 3. • 6. UV-VIS change in absorbance at 320 nm within 24 hours: 0.01 gave a score of 1, ≤0.05 gave a score of 2, 0.0.2 gave a score of 3 and >0.2 gave a score of 4.

CC[C@H](C)[C@H](NC(=O)[C@@H](NC(=O)[C@H](CC(=O)O)NC(=O)[C@H](CCC(=O)O)NC(=O)[C@H](C)NC(=O)[C@H](CCC(=O)O)NC(=O)[C@@H](N)[C@@H](C)O)C(C)C)C(=O)N1CCC[C@H]1C(=O)N[C@@H](CCC(=O)O)C(=O)NCC(=O)N[C@@H](Cc1c[nH]c2ccccc12)C(=O)N[C@@H](CCCCN)C(=O)N[C@@H](C)C(=O)N[C@@H](CC(=O)O)C(=O)N[C@H](C(=O)N[C@@H](CO)C(=O)N[C@@H](Cc1ccc(O)cc1)C(=O)N[C@@H](CCC(=O)O)C(=O)N[C@@H](CO)C(=O)N[C@@H](CCCCN)C(=O)O)[C@@H](C)O [peptide 213]
experimental cross-reactivity [1]: showed cross-reactivity

AGELELQFRRVKSKYPEGTK-OH [peptide 207]
T cell response in % of the donors tested [2]: ~40% | solubility in aqueous solutions [3]: surprisingly good solubility in aqueous solutions | solubility, 1st round of solubility screening [3]: soluble | Visual inspection after 60 min pH 7 [3]: tread + | Visual inspection after centrifugation pH 7 [3]: + | Cross-reactivity score, Cyn d ([4]; score 0 to 7): 0 | Cross-reactivity score, Dac g ([4]; score 0 to 7): 3 | Cross-reactivity score, Fes p ([4]; score 0 to 7): 6 | Cross-reactivity score, Lol p ([4]; score 0 to 7): 6 | Cross-reactivity score, Pas n ([4]; score 0 to 7): 0.5 | Cross-reactivity score, Pha a ([4]; score 0 to 7): 6 | Cross-reactivity score, Poa p ([4]; score 0 to 7): 1 | Cross-reactivity sum [4]: 22.5 | Cross-reactivity/species [4]: 3.2 | solubility in all the test samples (concentrations and pH tested), all solubility tests [5]: good solubility | solubility in aqueous solutions and short-term stability [5]: sufficiently soluble | solubility [5]: acceptable solubility

AYRTAATAANAAPAN-OH [compound 353]
Cross-reactivity score ([1]; homologue of peptide 241 (Phl p 5), Table 51, based on results from Study XR1 (score 5 upgraded to 7)): 7 | cross-reactivity of homologue ([1]; homologues of peptide 241, Study XR1): very high cross-reactivity

EAKYDAYVATLSEALRIIAG-OH [peptide 233]
experimental cross-reactivity [1]: showed cross-reactivity; also recorded: good cross reactivity

GDEQKLRSAGELELQFRRVK-OH [compound 206]
solubility, 1st round of solubility screening [3]: soluble | Cross-reactivity score, Cyn d ([4]; score 0 to 7): 0 | Cross-reactivity score, Dac g ([4]; score 0 to 7): 2 | Cross-reactivity score, Fes p ([4]; score 0 to 7): 2 | Cross-reactivity score, Lol p ([4]; score 0 to 7): 2 | Cross-reactivity score, Pas n ([4]; score 0 to 7): 0 | Cross-reactivity score, Pha a ([4]; score 0 to 7): 1 | Cross-reactivity score, Poa p ([4]; score 0 to 7): 0.5 | Cross-reactivity score, Sor h ([4]; homologue from Sor h, score 0 to 7): 0.5 | Cross-reactivity sum [4]: 8 | Cross-reactivity/species [4]: 1 | solubility in all the test samples (concentrations and pH tested), all solubility tests [5]: good solubility | solubility in aqueous solutions and short-term stability [5]: sufficiently soluble | solubility [5]: acceptable solubility

GFKAALAAAAGVPPADKYRT-OH [peptide 230]
experimental cross-reactivity [1]: showed cross-reactivity

GRGSGSSFEIKSTKPEASSG-OH [compound 202]
experimental cross-reactivity [1]: showed cross-reactivity

GSDPKKLVLNIKYTRPGDSL-OH [peptide 217]
solubility, 1st round of solubility screening [3]: soluble | Visual inspection after 60 min pH 4.5 [3]: + particles | Visual inspection after centrifugation pH 4.5 [3]: Ok | Visual inspection after 60 min pH 7 [3]: particles + | Visual inspection after centrifugation pH 7 [3]: ++ | experimental cross-reactivity [1]: showed cross-reactivity | Cross-reactivity score, Dac g ([4]; score 0 to 7): 1 | Cross-reactivity score, Lol p ([4]; score 0 to 7): 5 | Cross-reactivity sum [4]: 6 | Cross-reactivity/species [4]: 3 | solubility in all the test samples (concentrations and pH tested), all solubility tests [5]: good solubility | solubility in aqueous solutions and short-term stability [5]: sufficiently soluble | solubility [5]: acceptable solubility

HGSEEWEPLTKKGNVWEVKS-OH [compound 218]
experimental cross-reactivity [1]: showed cross-reactivity

KDKWIELKESWGAIWRIDTP-OH [peptide 210]
experimental cross-reactivity [1]: showed cross-reactivity

KEDFLGSLVKEIPPRLLYAK-OH [peptide 222]
solubility, 1st round of solubility screening [3]: soluble | Visual inspection after 60 min pH 4.5 [3]: + particles, | Visual inspection after centrifugation pH 4.5 [3]: ++ | Visual inspection after 60 min pH 7 [3]: tread + | Visual inspection after centrifugation pH 7 [3]: ++ | Cross-reactivity score, Cyn d ([4]; score 0 to 7): 1 | Cross-reactivity sum [4]: 1 | Cross-reactivity/species [4]: 1 | solubility in aqueous solutions and short-term stability [5]: sufficiently soluble | solubility [5]: acceptable solubility

TKKGNVWEVKSSKPLVGPFN-OH [peptide 219]
experimental cross-reactivity [1]: showed cross-reactivity
